Active and inactive are the calls of the source. No rule for the calls is given here.
tested on: HEK-293T NF-kB luciferase reporter counterscreen, luminescence; assay: inhibitors of HEK-293T NF-kB luciferase – HEK-293T cells, luminescence, counter-screen for T-cell antigen receptor NF-kB inhibitors, dose response (AID 489041)

Compound | IC50
COC(=O)c1[nH]c2c(c1C)C(=O)CC(c1cccc(OC)c1)C2 (stereo unspecified) | 2.58 µM
CN(C)S(=O)(=O)c1ccc(Nc2nc(C3CC3)nc3c2nnn3Cc2ccccc2Cl)cc1 | 4.04 µM
Cc1ccc(C(=O)O/N=C(\N)c2ccccn2)c(Cl)c1 | 2.61 µM
CCCCC(=O)NC(c1ccc(Cl)cc1)c1ccc2cccnc2c1O (stereo unspecified) | > 80 µM (inactive)
CCOC(=O)Nc1nc(-c2ccccc2)c(C(=O)c2ccccc2)s1 | > 80 µM (inactive)
COc1ccccc1N1CCN(C(=O)C2c3ccccc3Oc3ccccc32)CC1 | 14.2 µM
Cc1nc(Sc2nnnn2C)c2c3c(sc2n1)CCC3 | 31.4 µM (inactive)
Cc1ccc2nc(-c3ccc4c(c3)OCCO4)cn2c1 | 2.34 µM
CCOc1ccccc1C1CC(=O)Nc2cc3c(cc21)OCCO3 (stereo unspecified) | 4.19 µM
CCCCCc1ccc(OCCCC[n+]2ccc(C)cc2)c(CCCCC)c1 | 5.84 µM
Cc1noc(C)c1CSc1nc2ccccc2c(=O)n1-c1ccccc1 | 9.04 µM
COc1ccc(/C=C/C(=O)c2cc(F)ccc2OC(=O)c2ccccc2)cc1OC | < 0.16 µM
CCOC(=O)COc1cccc2c(=O)n(CC(=O)NCc3ccccc3)ccc12 | 0.63 µM
CCCN1C=CC(=C2C(=O)c3ccccc3C2=O)C=C1 | 1.1 µM
CC(C)c1oc(=O)cc2c1[C@@H](O)[C@H]1OC(=O)[C@@]3(C)CC[C@@H](O)[C@@]2(C)C13 (stereo partly specified) | 4.59 µM
Cc1cc(NC(=O)CSc2nc3c(sc4ccccc43)c(=O)n2CCCN2CCOCC2)n[nH]1 | 1.02 µM
CCOC(=O)c1[nH]c(C)c(C(=O)Nc2cc(Cl)ccc2C)c1C | 4.39 µM
CCCCC(=O)NC(c1ccc(N(CC)CC)cc1)c1ccc2cccnc2c1O (stereo unspecified) | > 80 µM (inactive)
COc1ccc(/C=C2/C(=O)OCc3cc(OC)c(OC)cc32)cc1 | 12 µM
C=C(C)C(=O)O[C@H]1C/C(C)=C\C(=O)/C=C(\C)[C@H](O)[C@@H]2OC(=O)C(=C)[C@@H]21 | 19.7 µM
COc1ccc(C(=O)/C(C#N)=N/Nc2ccc([N+](=O)[O-])cc2)cc1 | 0.32 µM
CC(=O)O[C@@]12CO[C@@H]1C[C@@H](O)[C@@]1(C)C(=O)[C@H](O)C3=C(C)[C@@H](OC(=O)[C@H](O)[C@@H](NC(=O)c4ccccc4)c4ccccc4)C[C@@](O)([C@@H](OC(=O)c4ccccc4)C12)C3(C)C (stereo partly specified) | > 80 µM (inactive)
COc1cc(C2=NOC(C(=O)NCc3ccc(F)cc3)C2)cc(OC)c1OC (stereo unspecified) | 6.34 µM
CC1=C(C(=O)OCc2ccc3c(c2)OCO3)C(c2ccc(Cl)cc2)NC(=O)N1 (stereo unspecified) | < 0.16 µM

Compound | IC50
COc1ccc(C(C(=O)NC2CCCCC2)N(C(=O)CCl)c2ccc(C)cc2)cc1 (stereo unspecified) | > 80 µM (inactive)
CCOc1cccc(/C=N/Nc2ccc(S(=O)(=O)N(CC)CC)cn2)c1O | 0.31 µM
COc1ccccc1N=C(C)C1=C(O)CC(c2ccccc2)CC1=O (stereo unspecified) | 0.78 µM
O=C(Nc1ccc(S(=O)(=O)Nc2ccccc2)cc1)c1ccc(CN2CCOCC2)cc1 | 5.23 µM
Cc1ccc(S(=O)(=O)NCc2ccncc2)cc1C | 15.5 µM
CC(=O)O[C@H]1C(=O)[C@@]2(C)C([C@H](OC(=O)c3ccccc3)[C@]3(O)C[C@H](OC(=O)[C@H](O)[C@@H](NC(=O)Cc4ccccc4)c4ccccc4)C(C)=C1C3(C)C)[C@]1(OC(C)=O)CO[C@@H]1C[C@@H]2O (stereo partly specified) | 45.6 µM (inactive)
Cc1ccc(NS(=O)(=O)c2ccc(C(=O)NC3CCN(Cc4ccccc4)CC3)cc2)cc1 | 7.66 µM
CCC(C)C(=O)N[C@@H](c1ccccc1)[C@@H](O)C(=O)O[C@H]1C[C@@]2(O)[C@@H](OC(=O)c3ccccc3)C3[C@](C)(C(=O)[C@H](OC(C)=O)C(=C1C)C2(C)C)[C@@H](O)C[C@H]1OC[C@@]31OC(C)=O (stereo partly specified) | > 80 µM (inactive)
COc1cc(C2C3=C(Nc4ncnn42)c2ccccc2CC3)cc(OC)c1OC (stereo unspecified) | 0.83 µM
Oc1ccc(Nc2nc3ccccc3nc2Nc2ccc(O)cc2)cc1 | 17.6 µM
Cc1ccc2oc(/N=C(\N)NC(=O)C(C)(C)C)nc2c1 | < 0.16 µM
O=S1(=O)C=C(Sc2nc3cc(Cl)ccc3o2)c2ccccc21 | 20.8 µM (inactive)
C#Cc1ccc([C@@H]2C=C(C(=O)N3CCN(Cc4ccccc4)CC3)O[C@H](OCCCCO)C2)cc1 | 2.32 µM
Cc1ccc(N(C)S(=O)(=O)c2ccc(-c3cnc(C4CC4)o3)cc2)cc1 | 4.53 µM
Cc1ccc(C(=O)O/N=C(\N)c2ccccn2)c(C)c1 | 0.53 µM
COc1ccc(CCNc2cc(N3CCN(C(=O)c4ccccc4F)CC3)ccc2[N+](=O)[O-])cc1OC | 0.68 µM
Cc1ccc(C(=O)c2cc([N+](=O)[O-])ccc2N2CCOCC2)c(C)c1 | 4.92 µM
COc1ccccc1N1CCN(C(=O)c2cc(=O)c3cc(C)cc(C)c3o2)CC1 | 76 µM (inactive)
O=C1CC(c2cccc(Br)c2)c2cc3c(cc2N1)CCC3 (stereo unspecified) | 6.52 µM
Cc1csc2sc(-c3ccnc(SCC(=O)NCc4ccccc4)n3)c(C)c12 | 3.8 µM
Cc1ccc(O)c(N=Nc2nccs2)c1 | > 80 µM (inactive)
CCC(O)C1CCN(C(=O)c2cc(COc3ccc4ncccc4c3)on2)CC1 (stereo unspecified) | 1.72 µM
O=C1CC(c2cc(F)ccc2F)c2cc3c(cc2N1)CCC3 (stereo unspecified) | 4.69 µM
O=C1/C(=C/c2ccc(N3CCOCC3)o2)SC(=Nc2ccccc2)N1CCc1c[nH]c2ccccc12 | 13.8 µM

Compound | IC50
CCN(CC)c1ccc(/C=C/c2ccc3ccc(OC)cc3[n+]2CC)cc1 | 0.72 µM
Cc1ccc(-c2cc(C(F)F)n3ncc(C(=O)N4CCc5ccccc54)c3n2)cc1 | 9.99 µM
CCOC(=O)CSC1=C(C#N)C(c2ccc(C)s2)CC(=O)N1 (stereo unspecified) | 3.78 µM
CCN(CC)S(=O)(=O)c1ccc(NC(=O)c2ccc(CN3CCOCC3)cc2)cc1 | 2.54 µM
COc1cccc(CN(C)C(=O)c2ccc(OCC(=O)Nc3cccc(C(F)(F)F)c3)c(OC)c2)c1 | 1.88 µM
CC(Oc1ccc(Cl)cc1Cl)c1nc(-c2ccc(NC(=O)c3ccncc3)cc2)no1 (stereo unspecified) | 2.39 µM
COc1ccccc1C(=O)N(CCC1CCCN1C)c1nc2ccccc2s1 (stereo unspecified) | 18.6 µM
O=[N+]([O-])c1nn(-c2ccc3c(c2)OCCO3)n(O)c1=Nc1ccccc1 | 12.4 µM
Cn1cc(/C=N/n2cnc3scc(-c4ccc(Cl)cc4)c3c2=O)c2ccccc21 | 0.22 µM
COc1ccccc1-c1nnc2n1N=C(c1ccc(O)c(O)c1)CS2 | 2.41 µM
CC[C@@]1(O)C(=O)OCc2c1cc1n(c2=O)Cc2cc3c(CN(C)C)c(O)ccc3nc2-1 | 29.3 µM (inactive)
O=C(Nc1cccc2ccccc12)OC1C=CS(=O)(=O)C1 (stereo unspecified) | 51.2 µM (inactive)
CC(Nc1ncnc2ccccc12)c1ccccc1 (stereo unspecified) | 3.28 µM
CN(Cc1ccccc1)C1=CC(=[N+]2CCCC2)CC(C)(C)C1 | 1.61 µM
C=C(C)[C@@]12OC3(c4ccccc4)O[C@@H]1C1[C@@H]4O[C@]4(CO)[C@@H](O)[C@]4(O)C(=O)C(C)=C[C@H]4[C@@]1(O3)[C@H](C)[C@H]2OC(=O)/C=C/C=C/c1ccccc1 (stereo partly specified) | < 0.16 µM
CCCc1cc(C(=O)N/N=C/c2ccc(CC)s2)c2ccccc2n1 | 2.47 µM
COc1ccc(C2=NOC(C(=O)NCc3ccc(F)cc3)C2)cc1OC (stereo unspecified) | 14.7 µM
CC(C)n1c(CN(C)Cc2ccccc2)nc2c1c(=O)n(C)c(=O)n2C | 2.88 µM
CCCC1=Nc2cc(C(=O)NCCCOCC)ccc2Sc2ccccc21 | 0.97 µM
O=C(NCCOc1ccccc1)c1cc([N+](=O)[O-])ccc1N1CCOCC1 | 72.2 µM (inactive)
Cc1ccc(C)c(CSc2nc3[nH]ncc3c(=O)[nH]2)c1 | 4.88 µM
CCCOc1ccc(/C=N/Nc2cc(N3CCOCC3)ncn2)c(O)c1 | 0.38 µM
CCCCCCCCCCn1ccc(=N)cc1 | 0.61 µM
